According to patent US11034662B2, “Substituted phenothiazines as mitochondrial agents” (ARIZONA BOARD OF REGENTS ON BEHALF OF ARIZONA STATE …, priority 2015, dated 2021):

Columns and labels:
[1] = tested on: bovine heart mitochondrial NADH oxidase activity (complexes I, III and IV); assay: NADH oxidase activity in bovine heart mitochondria; format: biochemical; conditions: complex I completely blocked by rotenone; FIG. 6
Method: The effect of the methylene blue analogues on the activities of complexes I, III and IV within the respiratory chain was evaluated using bovine heart mitochondria during the oxidation of their respective substrate (NADH) as described previously. Briefly, a small scale preparation of bovine heart mitochondria was prepared as described before (Smith, A. L (1967), Methods Enzymol. 10, 81). Bovine heart submitochondrial particles (SMPs) were prepared as described by Matsuno-Yagi and stored in a buffer containing 0.25 M sucrose and 10 mM Tris-HCl, pH 7.4, at −80° C. (Matsuno-Yagi, A.; Hatefi, Y. J. (1985) J. Biol. Chem. 260, 11424). SMPs were diluted to 0.5 mg/mL. Mitochondrial complexes I, III, and IV activity were assayed at 30 C and monitored spectrophotometrically using a Beckman Coulter DU-530 (340 nm, ε=6.22 mM^−1 cm^−1). NADH oxidase activity was determined in 50 mM Hepes buffer containing 5 mM MgCl2, pH 7.5, in a total volume of 2.5 mL. The final mitochondrial protein concentration was 30 μg/mL. The initial rates of NADH oxidation were calculated from the linear portion of the traces.

frataxin = assay: Frataxin protein expression (Western blot) in FRDA lymphocytes; format: cell-based, human; conditions: for level of frataxin (western blot): FRDA lymphocytes, FIG. 9
Method: Human mitochondrial disease cell line, Friedreich's ataxia lymphocytes (GM15850) was obtained from Coriell Cell Repositories (Camden, N.J.). Lymphocytes were cultured in RPMI-1640 medium (Gibco, Life Technologies, Grand Island, N.Y.) with 15% fetal calf serum, 2 mM glutamine (HyClone, South Logan, Utah) and 1% penicillin-streptomycin antibiotic supplement (Cellgro, Manassas, Va.). Cells were passaged every other day to maintain them in log phase growth and kept at a nominal concentration of 5-10×10^5 cell/mL. A CoQ10 deficient lymphocyte cell line (GM17932) was obtained from Coriell Cell Repositories. A nutrient sensitized screening strategy to identify methylene blue analogues that function within the mitochondrial respiratory chain was used by growing the CoQ10-deficient or FRDA lymphocytes in galactose containing media to force energy production predominantly through oxidative phosphorylation rather than glycolysis.^1-4 The lymphocytes were cultured in RPMI 1640 glucose free medium (Gibco, Grand Island, N.Y.) supplemented with 25 mM galactose, 2 mM glutamine and 1% penicillin-streptomycin, and 10% dialyzed fetal bovine serum (FBS) (<0.5 μg/mL) (Gemini Bio-Product, West Sacramento, Calif.).
Immortalized normal and FRDA lymphocyte cell lines were seeded at 500,000 cells per/mL (5 mL) in T-25 flask. Cultures were treated with the test compounds and incubated for 24 h. Cells were harvested by centrifugation, washed with saline buffer and then were lysed using 200 μL of lysis buffer (1% triton X-100, 0.1% SDS, Tris-HCl (50 Mm) pH 7.4, 150 mM NaCl, 0.5% sodium deoxycholate, 0.1 mM EDTA) with protease inhibitors (protease cocktail inhibitors (Roche Applied Science) and 1 mM phenylmethylsulfonyl fluoride (Sigma), and incubated on ice for 30 min with periodical mixing. These samples were cleared of insoluble material by centrifugation at 20,000×g for 10 min at 4° C. Total protein concentration was measured by the BCA kit (Thermo Fisher Scientific). NuPAGE LDS Sample Buffer (4×) and NuPAGE Reducing Agent (10×) was added the lysate and they were denatured at 95° C. for 5 min, then equal amounts of lysates ([…]) were used for immunoblotting. Samples were resolved on a 4%-12% SDS-polyacrylamide Bis-Tris gels (Invitrogen) according to the manufacturer's recommendations and then proteins were transferred to nitrocellulose membranes. After blocking with Superblock-TBS (Thermo Fisher Scientific) for 1 hour to inhibit non-specific binding the blot was incubated with anti-frataxin monoclonal antibody (5 μg/mL) (18A5DB1) (Novex®) (Life technologies) overnight at 4° C. to detect endogenous frataxin in FRDA and normal lymphocytes. Following three 5-min washes with TBST, the blots were incubated with horseradish peroxidase-linked secondary […] antibody IgGs (1:10,000, Sigma, in Superblock-TBS) at room temperature for 1 hr. The blots were washed three times for 5 min with TBST, rinsed with deionized H2O, and developed with enhanced chemiluminescence (ECL) (BioRad Chemi-Doc) using West Pico Chemiluminescent Substrate (Pierce Biotechnology).

Compound | effect on NADH oxidase activity: redirection of electron flow in the respiratory chain [1] | level of frataxin (western blot) (frataxin; higher concentration) | level of frataxin (western blot) (frataxin; lower concentration) | frataxin levels (frataxin; general statement, concentration not given)
CCCCCCCCCCCCCCCCCc1cc2nc3ccc(N(C)C)cc3sc-2cc1=[N+](C)C [compound 5, N-(7-(dimethylamino)-2-heptadecyl-3H-phenothiazin-3-ylidene)-N-methylmethan-aminium iodide] | able redirect electron flow in the respiratory chain |  |  | 
CN(C)c1ccc2nc3ccc(=[N+](C)C)cc-3sc2c1 [Methylene blue, 3,7-bis(dimethylamino)phenazathionium chloride, reference compound] |  | did not | slightly increased | 
CCCCCCCCCCCCCCCN(CCCC)c1ccc2nc3ccc(=O)cc-3sc2c1 [compound 33, 7-(butyl(pentadecyl)amino)-3H-phenothiazin-3-one] |  | significantly increased | significantly increased | significantly increased
